Experimental data reported in PubChem BioAssay AID1845219 (Molecular Pharmacology Branch, DTP, NCI, 2023).

Tested on: SYO-1 tumor spheroids, viability % test/control
Experiment: Anticancer human tumor SYO-1 cell line growth inhibition;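 also: spheroids exposed to agents for 7 days before viability read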;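 as to viability, T/C: 100% = DMSO vehicle control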
Conditions: spheroids with HUVEC and MSC; for IC50: curve of first compound; for viability, T/C: stronger effect = lower value
Text: Multicellular complex tumor spheroid response to DNA repair inhibitors in combination with DNA-damaging drugs
This study explores the anticancer activities of DNA-damaging drugs and inhibitors of DNA damage repair, both as single agents and in combinations. Complex tumor spheroids comprised of malignant cells, endothelial cells and mesenchymal stem cells served as an in vitro model for human solid tumors. This model system incorporates physiologically relevant features and patient-derived or established malignant cell lines with clinically relevant genetic alterations from many tumor types. Twenty-six patient-derived or established malignant cell lines were evaluated representing sarcoma, melanoma, small cell lung cancer (SCLC), non-small cell lung cancer (NSCLC), as well as bladder, ovarian and pancreatic cancers. The concentration ranges selected for each drug and investigational agent were based upon clinically achievable concentrations if the clinical Cmax of the agent was known.
Compounds. The drugs and compounds olaparib (NSC753686), talazoparib (NSC767125), berzosertib (NSC777718), elimusertib (NSC800525), nedisertib (NSC802822), VX-984 (NSC792969), AZD-1390 (NSC803789), temozolomide (NSC362856), topotecan (NSC609699), trabectedin (NSC813783), staurosporine (NSC755774), and gemcitabine (NSC613327) were obtained from the National Cancer Institute (NCI) Developmental Therapeutics Program Chemical Repository. The FDA-approved anticancer drug set is available from the Developmental Therapeutics Program at https://dtp.cancer.gov/organization/dscb/obtaining/available_plates.htm. […] The stock solutions were prepared in dimethyl sulfoxide (DMSO, Sigma-Aldrich, St. Louis, MO, cat. D2650) at 400-fold the tested concentration and stored at -70 degrees C. Prior to their use, the stock solutions were diluted in fresh medium and the final DMSO concentration in the assay was 0.25% (v/v). All drugs and investigational agents were tested over a range starting from a high concentration at or near the clinical Cmax and decreasing in half-log increments. If the clinical Cmax for an agent had not been determined, the highest concentration tested was 10 microM.
Cell Lines. The patient-derived cancer cell (PDC) lines: 156681-154-R-J1-PDC, 283228-195-R-J1-PDC, 287954-098-R-J1-PDC, 292921-168-R-J2-PDC, 349418-098-R-PDC, 425362-245-T-J1-PDC, 556581-035-R-J1-PDC, and BL0293-F563-PDC were received from the NCI Patient-Derived Models Repository (PDMR, https://pdmr.cancer.gov). The established cell lines HS-SY-2 (RRID:CVCL_8719), MPNST, and SYO-1 (RRID:CVCL_7146) were obtained from the Sloan Kettering Institute. The alveolar soft parts sarcoma cell line ASPS-1 (RRID:CVCL_S738) was established at the NCI and grown from internal seed stocks. The following established cell lines were purchased from the American Type Culture Collection (ATCC, Manassas, VA): G-401 (ATCC, cat. CRL-1441, RRID:CVCL_0270), SW982 (ATCC, cat. HTB-93, RRID:CVCL_1734), VA-ES-BJ (ATCC, cat. CRL-2138, RRID:CVCL_1785), NCI-H719 (ATCC, cat. CRL-5837, RRID:CVCL_1582), NCI-H196 (ATCC, cat. CRL-5823, RRID:CVCL_1509), NCI-H841 (ATCC, cat. CRL-5845, RRID:CVCL_1595), NCI-H1618 (ATCC, cat. CRL-5879, RRID:CVCL_1480), NCI-H1876 (ATCC, cat. CRL-5902, RRID:CVCL_1503), DMS 114 (ATCC, cat. CRL-2066; RRID:CVCL_1174), NCI-H211 (ATCC, cat. CRL-5824; RRID:CVCL_1529), and SW 1271 (ATCC, cat. CRL-2177, RRID:CVCL_1716). The small cell lung cancer cell line COR-L88 was purchased from Sigma-Aldrich (cat. 92031917-1VL, RRID:CVCL_1141). The non-small cell lung cancer cell lines NCI-H226 (RRID:CVCL_1544) and NCI-H322M (RRID:CVCL_1557) were established at the NCI and grown from internal seed stocks. Pooled donor human umbilical vein endothelial cells (HUVEC, Lonza, cat. CC-2519) and human mesenchymal stem cells (hMSC, Lonza, cat. PT-2501) were purchased from Lonza (Walkersville, MD).
Cell Culture. All cells were maintained in an incubator at 37 degrees C and 5% CO2 with 95% humidity. […]

`Cc1sc2c(c1C)C(c1ccc(Cl)cc1)=NC(CC(=O)Nc1ccc(O)cc1)c1nnc(C)n1-2` (stereo not given) + CC[C@@]1(O)C(=O)OCc2c1cc1n(c2=O)Cc2cc3c(CN(C)C)c(O)ccc3nc2-1 was tested, and the IC50 (second compound 0.003 µM) was 43.4 nM, the IC50 (second compound 0.00949 µM) was < 9.49 nM and the IC50 (second compound 0.03 µM) was < 9.49 nM. For the same compound, the IC50 (second compound 0.0949 µM) was < 9.49 nM, the IC50 (second compound 0.3 µM) was < 9.49 nM and the viability, T/C (second compound 0.003 µM, first compound 0.00949 µM) was 84.9%. The viability, T/C (second compound 0.003 µM, first compound 0.03 µM) was 70.3%, the viability, T/C (second compound 0.003 µM, first compound 0.0949 µM) was 7.08% and the viability, T/C (second compound 0.003 µM, first compound 0.3 µM) was 0.99%. The viability, T/C (second compound 0.003 µM, first compound 0.949 µM) was 0.77%, the viability, T/C (second compound 0.003 µM, first compound 3 µM) was 0.63% and the viability, T/C (second compound 0.00949 µM, first compound 0.00949 µM) was 6.31%. It also gave a viability, T/C (second compound 0.00949 µM, first compound 0.03 µM) of 3.24%, a viability, T/C (second compound 0.00949 µM, first compound 0.0949 µM) of 1.18% and a viability, T/C (second compound 0.00949 µM, first compound 0.3 µM) of 1.31%. The viability, T/C (second compound 0.00949 µM, first compound 0.949 µM) was 0.7%, the viability, T/C (second compound 0.00949 µM, first compound 3 µM) was 0.6% and the viability, T/C (second compound 0.03 µM, first compound 0.00949 µM) was 1.74%. For the same compound, the viability, T/C (second compound 0.03 µM, first compound 0.03 µM) was 1.47%, the viability, T/C (second compound 0.03 µM, first compound 0.0949 µM) was 1.35% and the viability, T/C (second compound 0.03 µM, first compound 0.3 µM) was 7.03%. For the same compound, the viability, T/C (second compound 0.03 µM, first compound 0.949 µM) was 0.62%, the viability, T/C (second compound 0.03 µM, first compound 3 µM) was 0.49% and the viability, T/C (second compound 0.0949 µM, first compound 0.00949 µM) was 1.62%. The viability, T/C (second compound 0.0949 µM, first compound 0.03 µM) was 1.4%, the viability, T/C (second compound 0.0949 µM, first compound 0.0949 µM) was 0.87% and the viability, T/C (second compound 0.0949 µM, first compound 0.3 µM) was 1.04%. It also gave a viability, T/C (second compound 0.0949 µM, first compound 0.949 µM) of 0.66%, a viability, T/C (second compound 0.0949 µM, first compound 3 µM) of 0.74% and a viability, T/C (second compound 0.3 µM, first compound 0.00949 µM) of 1.64%. For the same compound, the viability, T/C (second compound 0.3 µM, first compound 0.03 µM) was 1.48%, the viability, T/C (second compound 0.3 µM, first compound 0.0949 µM) was 1.05% and the viability, T/C (second compound 0.3 µM, first compound 0.3 µM) was 0.75%. It also gave a viability, T/C (second compound 0.3 µM, first compound 0.949 µM) of 0.47% and a viability, T/C (second compound 0.3 µM, first compound 3 µM) of 0.55%.
